{"source": "patent US7820624B2", "about": "“Peptide ligands” (ICH Productions Limited, priority 2003, dated 2010)", "key": {"[1]": {"test_system": "primary mouse dendritic cells", "assay": "Adenoviral transduction of mouse dendritic cells", "format": "cell-based", "settings": "bone marrow derived DCs", "procedure": "Mouse dendritic cells were prepared from whole bone marrow flushed from the marrow cavities of the femur and tibia of 5-7 week old A/J mice and cultured in Hepes buffered RPMI+Glutamax (InVitrogen, Paisley, U. K.) supplemented with 10% FCS, penicillin/streptomycin and 20 ng/ml recombinant GM-CSF. Cytokines were added to the same concentration on day 3 and the dendritic cells isolated from the floating cell fraction by MACs CD11c microbeads (Miltenyi Biotec, Bisley, U. K.) on day 6.\nDay 6 dendritic cells (see Example 1(v) above), or mouse bone marrow derived dendritic cells or mouse Sca1+ve stem cells, see (i) and (ii) above, were plated at 5×10^4 cells per well in a 48 well plate in 500 μl complete medium and allowed to settle for 3 hours at 37° C. Transductions were carried out in complete media, with virus being added at 100,000 viral particles/cell for 24 hours. Cells were harvested by scraping, spun down at 650 g (2000 rpm) for 5 min, resuspended in 300 μl PBS, and kept on ice before analysis. Viral transduction as determined by percentage of GFP positive cells was measured by FACS analysis. […] Cells were then washed twice in PBS, trypsinised, triplicate wells pooled, spun down at 350×g for 5 min and resuspended in 300 μl PBS before analysis by flow cytometry where cell viability was to be measured, 10 μl 7AAD was added just prior to analysis."}, "[2]": {"test_system": "day 6 immature dendritic cells", "assay": "Maturation of adenovirus-transduced dendritic cells in response to LPS (marker flow cytometry)", "format": "cell-based, human", "settings": "LPS 50 ng/ml; virus 100,000 particles per cell", "procedure": "Day 6 immature dendritic cells were infected with retargeted Ad or Ad5 at 100,000 particles per cell in complete medium for 24 hours, with E. coli 026:B6 lipopolysaccharide (LPS) added following 3 hours incubation at a concentration of 50 ng/ml. As controls, dendritic cells were either incubated in complete medium for 24 hours or matured by the addition of LPS in complete medium for 24 hours, In all samples IL-4 and GM-CSF were present in the complete medium at 25 ng/ml and 100 ng/ml respectively. Cells were then phenotyped by staining as follows: a minimum of 5×10^4 cells in a volume of less than 2 ml medium were added to the recommended amount of antibody and incubated for 20 min on ice. 2 ml of ice-cold PBS was added before centrifugation at 300×g for 5 min at 4° C. The supernatant was flicked off and the pellet resuspended in 300 μl ice cold PBS. Cells from each sample were stained with antibodies to HLA-DR, CD40, CD80, CD83, CD86 and isotype matched control antibodies. Where cell viability was also measured, […] of 7AAD was added immediately prior to analysis. Cells were analysed by flow cytometry using a Epics XL (Beckman Coulter, High Wycombe, UK.) and the EXPO32 analysis software (Beckman Coulter)."}, "[3]": {"test_system": "human monocyte-derived immature dendritic cells", "format": "cell-based", "settings": "100,000 viral particles/cell", "text": "Ad5 particles with the DC-binding peptides incorporated into the HI loop of the fibre protein were produced essentially as described previously ^12. Complementary oligonucleotides encoding the peptide sequences SHVKLNS [SEQ. ID. NO.:29] (5′ CC GGAAGCCACGTGAAGCTGAACAGCG 3′ [SEQ. ID. NO.:58] and 5′ CC GGCGCTGTTCAGCTTCACGTG GCTT 3′[SEQ. ID. NO.:59]) or APSNSTA [SEQ. ID. NO.:15] (5′ CC GGAGCCCCCAGCAACAGCACCGCCG 3′ [SEQ. ID. NO.:61] and 5′ CC GGCGGCGGTGCTGTTGCTGGG GGCT 3′ [SEQ. ID. NO.:62]) were synthesized (Operon Technologies, Alameda Calif. U.S.A.). The oligo pairs were then kinased, annealed, and ligated into the unique BspE1 site of pDV137 ^12, an expression construct encoding an Ad5 fibre protein with a double point mutant (KO1) which blocks CAR binding and a linker/restriction site in the HI loop, to create pDV178 (SHVKLNS) and pDV179 (APSNSTA). Following sequence confirmation, the plasmids were used to trans-complement the fibre-deleted vector Ad5.GFP.δF^18 by transient transfection into 293 cells as described ^19. Viral particles were purified by freeze/thaw lysis and CsCl gradient centrifugation and dialyzed into 40 mM TRIS-pH 8.1/0.9% NaCl/10% glycerol and stored at −80° C. Virus was quantified by protein assay (BioRad, Hercules Calif., U.S.A.) against BSA standards and using the relation 1 μg viral protein=4×10^9 viral particles.\nRetargeted adenoviruses carrying a peptide A or B were used for the transduction experiments described below. Wild type adenovirus type 5 and type 5 adenovirus having a KO1 fibre, all supplied by Dr Dan von Seggern, and as described in Nicklin 2001 Mol Ther 2001 Dec.; 4(6):534-42), were used as controls.\nDay 6 dendritic cells (see Example 1(v) above), or mouse bone marrow derived dendritic cells or mouse Sca1+ve stem cells, see (i) and (ii) above, were plated at 5×10^4 cells per well in a 48 well plate in 500 μl complete medium and allowed to settle for 3 hours at 37° C. Transductions were carried out in complete media, with virus being added at 100,000 viral particles/cell for 24 hours. Cells were harvested by scraping, spun down at 650 g (2000 rpm) for 5 min, resuspended in 300 μl PBS, and kept on ice before analysis. Viral transduction as determined by percentage of GFP positive cells was measured by FACS analysis. To measure percentage viability, 10 μl of 7-amino-actinomycin D (7AAD; Sigma, Poole, Dorset) was added immediately prior to analysis. Viral transduction of macrophages was carried out at 10,000 particles/cell in medium containing 2.5% FCS. For other cell types, cells were seeded overnight at 5×10^4 cells per well in 24-well plates in the appropriate media. Adenovirus was added in OptiMEM at 10,000 viral particles/cell, 1 ml per well in triplicate and incubated for 24 h at 37° C. Cells were then washed twice in PBS, trypsinised, triplicate wells pooled, spun down at 350×g for 5 min and resuspended in 300 μl PBS before analysis by flow cytometry where cell viability was to be measured, 10 μl 7AAD was added just prior to analysis.\nCells were pooled from three separate transduction experiments for the calculation of results."}, "[4]": {"test_system": "HMEC-1 cells", "assay": "Adenoviral transduction of HMEC-1 cells", "format": "cell-based, human", "settings": "10,000 particles per cell in OptiMEM; listed as peptide A", "procedure": "(§1) Day 6 dendritic cells (see Example 1(v) above), or mouse bone marrow derived dendritic cells or mouse Sca1+ve stem cells, see (i) and (ii) above, were plated at 5×10^4 cells per well in a 48 well plate in 500 μl complete medium and allowed to settle for 3 hours at 37° C. Transductions were carried out in complete media, with virus being added at 100,000 viral particles/cell for 24 hours. Cells were harvested by scraping, spun down at 650 g (2000 rpm) for 5 min, resuspended in 300 μl PBS, and kept on ice before analysis. Viral transduction as determined by percentage of GFP positive cells was measured by FACS analysis. To measure percentage viability, 10 μl of 7-amino-actinomycin D (7AAD; Sigma, Poole, Dorset) was added immediately prior to analysis. Viral transduction of macrophages was carried out at 10,000 particles/cell in medium containing 2.5% FCS. […] Cells were then washed twice in PBS, trypsinised, triplicate wells pooled, spun down at 350×g for 5 min and resuspended in 300 μl PBS before analysis by flow cytometry where cell viability was to be measured, 10 μl 7AAD was added just prior to analysis.\n(§2) For transduction of these other cell types, cells were seeded overnight at 5×10^4 cells per well in 24 well plates in the appropriate media. […] Where cell viability was to be measured, 10 μl 7-amino-actinomycin D (7AAD; Sigma, Poole, Dorset) was added just prior to analysis. […]"}, "[5]": {"test_system": "1HAEo- cells", "assay": "Adenoviral transduction of 1HAEo- cells", "format": "cell-based, human", "settings": "10,000 particles per cell in OptiMEM; listed as peptide A", "procedure": "as §1, §2"}}, "data": [{"substance": "SHVKLNS (Synthetic peptide binding to dendritic cells)", "values": [{"measurement": "Transduction efficiency", "setting": "[1]", "value": 71.7, "unit": "%"}, {"measurement": "CD40 positive cells", "setting": "[2]", "value": 15.6, "unit": "%"}, {"measurement": "CD80 positive cells", "setting": "[2]", "value": 16.5, "unit": "%"}, {"measurement": "CD83 positive cells", "setting": "[2]", "value": 24.6, "unit": "%"}, {"measurement": "CD86 positive cells", "setting": "[2]", "value": 98.4, "unit": "%"}, {"measurement": "HLA-DR positive cells", "setting": "[2]", "value": 58.1, "unit": "%"}, {"measurement": "Transduction (% GFP positive cells), donor A", "setting": "[3]; complete medium, 24 hours, donor A", "value": 64.2, "unit": "%"}, {"measurement": "Transduction (% GFP positive cells), donor B", "setting": "[3]; complete medium, 24 hours, donor B", "value": 78.9, "unit": "%"}, {"measurement": "Percentage cell death, donor A", "setting": "[3]; donor A, 7AAD", "value": "(12.0) %"}, {"measurement": "Percentage cell death, donor B", "setting": "[3]; donor B, 7AAD", "value": "(13.3) %"}, {"measurement": "Transduction, % cells transduced", "setting": "[4]", "value": 95.7, "unit": "%"}, {"measurement": "Transduction, % cells transduced", "setting": "[5]", "value": 82.9, "unit": "%"}]}]}
